Assays:
hERG potassium channel [1] = target: T1, hERG potassium channel (Homo sapiens, UniProt Q12809); assay: radioligand competition binding, membranes
hERG potassium channel [2] = target: T1, hERG potassium channel; assay: biochemical; details: hERG / IC50 (nM)
hERG potassium channel [3] = target: T1, hERG potassium channel; assay: in vitro; details: % inhibition
hERG potassium channel [4] = target: T1, hERG potassium channel; assay: biochemical; details: hERG / Ki (nM)

T1 sequence (Q12809 whole entry): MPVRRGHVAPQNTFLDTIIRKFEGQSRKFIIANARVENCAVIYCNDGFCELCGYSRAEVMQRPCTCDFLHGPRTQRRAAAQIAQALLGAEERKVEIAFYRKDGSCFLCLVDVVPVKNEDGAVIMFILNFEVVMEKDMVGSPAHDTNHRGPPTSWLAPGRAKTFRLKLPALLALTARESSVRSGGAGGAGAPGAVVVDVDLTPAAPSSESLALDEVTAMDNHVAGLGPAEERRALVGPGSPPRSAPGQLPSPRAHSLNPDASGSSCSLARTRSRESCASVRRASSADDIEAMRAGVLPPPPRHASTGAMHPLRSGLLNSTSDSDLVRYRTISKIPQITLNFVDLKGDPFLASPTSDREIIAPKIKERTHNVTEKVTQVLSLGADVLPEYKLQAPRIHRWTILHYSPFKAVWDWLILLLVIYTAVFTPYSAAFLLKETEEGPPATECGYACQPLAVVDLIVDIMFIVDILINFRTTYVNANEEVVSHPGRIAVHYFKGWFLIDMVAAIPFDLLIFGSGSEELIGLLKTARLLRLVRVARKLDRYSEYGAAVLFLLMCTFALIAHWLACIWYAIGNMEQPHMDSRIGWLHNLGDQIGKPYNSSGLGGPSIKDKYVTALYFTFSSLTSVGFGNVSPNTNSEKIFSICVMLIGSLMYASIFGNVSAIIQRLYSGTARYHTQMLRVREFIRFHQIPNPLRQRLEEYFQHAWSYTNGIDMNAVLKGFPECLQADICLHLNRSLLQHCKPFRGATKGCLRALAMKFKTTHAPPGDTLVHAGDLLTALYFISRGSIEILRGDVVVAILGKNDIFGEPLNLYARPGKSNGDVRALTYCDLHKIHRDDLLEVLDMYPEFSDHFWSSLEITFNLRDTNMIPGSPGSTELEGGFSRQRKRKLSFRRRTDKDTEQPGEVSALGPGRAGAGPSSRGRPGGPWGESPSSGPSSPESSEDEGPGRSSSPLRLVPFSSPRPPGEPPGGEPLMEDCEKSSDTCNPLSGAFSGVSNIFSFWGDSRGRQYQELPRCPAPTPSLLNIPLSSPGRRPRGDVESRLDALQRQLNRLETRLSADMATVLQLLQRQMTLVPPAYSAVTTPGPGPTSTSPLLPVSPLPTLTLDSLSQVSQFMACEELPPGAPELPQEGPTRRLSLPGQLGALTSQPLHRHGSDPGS

`CN(C)CCCn1nc(-c2ccc(F)cc2)c2ccccc2c1=O` [compound 1, s_49__14518112__1114614] gave a Ki (hERG potassium channel [1]) of 1490 nM.

Compound `CN(C)CCCc1nc2ccccc2n1Cc1ccccc1` [compound 5, GMD_18471] has an IC50 (hERG potassium channel [2]; Synthesis=NBI) of 565 nM, a Ki (hERG potassium channel [1]) of 400 nM and an inhibition at 10 µM (hERG potassium channel [3]) of 88.9%.

`CN(C)CCCn1nc(-c2cccs2)c2ccccc2c1=O` [compound 2, s_49__14518112__101877] gave a Ki (hERG potassium channel [1]) of 946 nM.

`CN(C)CCCN(Cc1ccc(Cl)c(Cl)c1)c1nccc2cccnc12` [s_27____7425384____16803680] was tested, and the Ki (hERG potassium channel [4]; Synthesis=Enamine) was 64.9 nM, the IC50 (hERG potassium channel [2]; Synthesis=Enamine) was 91.8 nM and the inhibition at 10 µM (hERG potassium channel [3]) was 96.3%.

For `CN(C)CCCn1nc(-c2ccccc2)c2ccccc2c1=O` [GMD_14496], the Ki (hERG potassium channel [4]; Synthesis=NBI) was 2530 nM, the IC50 (hERG potassium channel [2]; Synthesis=NBI) was 3580 nM and the inhibition at 10 µM (hERG potassium channel [3]) was 54.2%.

Work on `CN(C)CCCn1nc(-c2ccc(Cl)cc2)c2ccccc2c1=O` [compound 3, s_49__14518112__88929] yielded a Ki (hERG potassium channel [1]) of 643 nM.

`CN(C)CCCN(CCCN(C)C)c1ccc2c(Br)ccc(Cl)c2n1` [s_27____6492506____8281582] gave a Ki (hERG potassium channel [4]; Synthesis=Enamine) of 2300 nM, an IC50 (hERG potassium channel [2]; Synthesis=Enamine) of 3250 nM and an inhibition at 10 µM (hERG potassium channel [3]) of 69%.

`CN(C)CCCn1nc(-c2ccc(Cl)cc2)c2ccccc2c1=O` [GMD_12503] gave a Ki (hERG potassium channel [4]; Synthesis=NBI) of 866 nM, an IC50 (hERG potassium channel [2]; Synthesis=NBI) of 1220 nM and an inhibition at 10 µM (hERG potassium channel [3]) of 72.4%.

`CN(C)CCN(Cc1cccc(Cl)c1)c1nccc2cnccc12` [s_27____7100894____16733638] was tested, and the Ki (hERG potassium channel [4]; Synthesis=Enamine) was 84 nM, the IC50 (hERG potassium channel [2]; Synthesis=Enamine) was 119 nM and the inhibition at 10 µM (hERG potassium channel [3]) was 99.7%.

With `CN(C)CCN(Cc1ccccc1)c1nc2cccc(F)c2s1` [compound 4, s_27__7100858__10689034] the Ki (hERG potassium channel [1]) was 1590 nM.

Compound `CN(C)CCCN(Cc1ccc(Cl)c(Cl)c1)c1ncnc2ccn(C)c12` [m_27____7425384____18313558] has a Ki (hERG potassium channel [4]; Synthesis=Enamine) of 604 nM, an IC50 (hERG potassium channel [2]; Synthesis=Enamine) of 854 nM and an inhibition at 10 µM (hERG potassium channel [3]) of 75.9%.

From doi:10.1101/2023.02.14.528391v1 (biorxiv, 2023)
